Results from US20200281897A1, “INDAZOLE DERIVATIVES FOR CANCER TREATMENT” (Servicio Andaluz de Salud, priority 2016, published 2020).

Key:
[1] = tested on: myeloma plasma cells (MPCs, CD38+); experiment: Ex vivo viability of myeloma plasma cells of MM patients by flow cytometry; format: cell-based, human; conditions: 18 hours, six MM patients
Method: In vitro studies were carried out using six different human MM cell lines, U266, RPMI8226, MM1S, MM1R, U266-LR7, and RPMI-LR5. For ex vivo assays, human primary cells from healthy donors and MM patients were used (Table 1). Human MM cell lines U266, RPMI8226, and MM1.S were acquired from ATCC and lines U266-LR7, RPMI-LR5, and MM1.R were kindly provided by Dr. Enrique Ocio (Hospital Universitario de Salamanca, Spain). The primary cells were obtained from bone marrow (BM) aspirates or peripheral blood (PB) samples, and the peripheral blood mononuclear cells (PBMCs) were isolated by Ficoll-Hypaque centrifugation and washed twice in phosphate buffered saline (PBS) containing 1% BSA. […]
The cell viability of the MM cell lines and primary cells from healthy PB donors was also evaluated by flow cytometry using 7-AAD/Annexin V. Patient bone marrow (BM) cells were analyzed using 7-AAD with a combination of monoclonal antibodies against myeloma-associated antigens (anti-CD56-APC, anti-CD45-Pacific Blue, and anti-CD38-APC-H7 [BD Biosciences]) and antibodies for distinguishing the granulomonocytic population (anti-CD64-FITC) and lymphocytic population (anti-CD45-Pacific Blue). The cells were acquired by means of FACSCanto II flow cytometer (BD Biosciences) and analyzed using Infinicyt™ Software (Cytognos, Spain).

[2] = tested on: U266 cells; experiment: MM xenograft in NGS mice; format: in vivo
Method: The “NOD/scid/IL-2R gammae null” (NGS) mice were acquired from Charles River (France). The tumor xenografts were induced by the subcutaneous injection of 5×10^6 U266 cells mixed with 100 μl of Matrigel (BD Biosciences) in 8-week old mice. When the tumors became palpable (>0.5 cm), the mice were randomly assigned in the following groups (10 mice per group), which received i.p.: 1) 5 mg/kg WIN-55 every 24 hours, 2) 5 mg/kg WIN-55 every 48 hours, and 3) a vehicle. Two groups were left tumor-free and served as a negative control, receiving treatment every 24 or 48 hours, respectively. The tumor growth was evaluated daily by measuring the two bisecting diameters of the tumor with a digital Vernier gauge or caliper. The volume was calculated using the following formula: volume=length×(width) e2×0.4 mm^3. The animals were sacrificed when the length or width of the tumor reached 2 cm.

[3] = tested on: MOLM-13; experiment: WST-1 cell viability assay, MOLM-13; format: cell-based, human; conditions: MOLM-13, 18 hours
Method: U937, NB-4, KG-1, and MOLM-13 (DMSZ, Braunschweig, Germany) were cultured in complete RPMI 1640 medium (with 2 mM of L-glutamine, 100 mg of penicillin, 100 μg/ml of streptomycin, and with 10% FBS), supplemented with 10 mM HEPES, 1×NaPuvuvato, and 1× non-essential amino acids.
The cell lines and primary cells were cultured in 96-well plates (5×10e5 cells per well) with the addition of the indicated concentrations of WIN 55,212-2 or PGN cannabinoids in DMSO or with the solvent only in triplicate at 18, 48, and 72 hours. Caspase inhibitor Z-VAD (OMe)-FMK or the CB2 receptor antagonist PGN-8, -37, and -70, together with the cannabinoid WIN-55,212-2, were also added. Cell viability was determined by means of the WST-1 assay [2-(4-iodophenyl)-3-(4-nitrophenyl)-5-(2,4-disulfophenyl)-2H-tetrazolium] according to the manufacturer's instructions (Dojindo Molecular Technologies). Optical densities were measured at 450 nm using a Multiskan™ Go Microplate plate reader (Thermo Fisher Scientific, Waltham, Mass., USA).
Now it will be analyzed whether the exposure to cannabinoids had any effect on the viability of the tumor cells in vitro. […]

[4] = tested on: MM1R; experiment: MTT cell viability assay, myeloma cell line MM1R; format: cell-based, human; conditions: MM1R, MTT, 18 hours, doses 0-50 μM; read-out: IC50, cell viability
Method: In vitro studies were carried out using six different human MM cell lines, U266, RPMI8226, MM1S, MM1R, U266-LR7, and RPMI-LR5. For ex vivo assays, human primary cells from healthy donors and MM patients were used (Table 1). Human MM cell lines U266, RPMI8226, and MM1.S were acquired from ATCC and lines U266-LR7, RPMI-LR5, and MM1.R were kindly provided by Dr. Enrique Ocio (Hospital Universitario de Salamanca, Spain). The primary cells were obtained from bone marrow (BM) aspirates or peripheral blood (PB) samples, and the peripheral blood mononuclear cells (PBMCs) were isolated by Ficoll-Hypaque centrifugation and washed twice in phosphate buffered saline (PBS) containing 1% BSA. Hematopoietic stem cells and B and T lymphocytes were isolated from healthy PB donors by positive immunomagnetic separation using human MACS CD34+, CD19+, and CD3+ microbeads, respectively. MM plasma cells were obtained from the bone marrow (BM) of patients with an infiltration of cells of more than 30% (Table 1). The MM plasma cells were identified using CD138+, and were then distinguished from the other cell populations by flow cytometry using a suitable combination of antibodies: anti-human CD64-FITC, CD34-PE, CD56-APC, CD38-APC-H7, and CD45-Pacific Blue antibodies (BD Biosciences, San Jose, Calif.). All the cell lines were cultured in RPMI-1640 supplemented with 10% fetal bovine serum (FBS) and 1% penicillin/streptomycin, as recommended by the supplier. For human primary cells, the concentration of FBS was up to 20%.
The MM cell lines and primary cells were exposed to different doses of indazole compounds, and viability was evaluated at 18, 48, and 72 hours. Pretreatments with the ceramide synthesis inhibitor (FB1), pan-caspase (ZVAD-FMK), and CB antagonists (PGN-8, PGN-37, and PGN-70) were performed for 30 minutes, and then the cells were incubated with indazole compound WIN-55 up to 18 hours. Cell viability was determined using the MTT assay Cell Counting Kit-8 (Dojindo, Kumamoto, Japan) according to the manufacturer's instructions.

CS(=O)(=O)O.Cc1c(C(=O)c2cccc3ccccc23)c2cccc3c2n1[C@H](CN1CCOCC1)CO3 [WIN-55, (R)-(+)-[2,3-dihydro-5-methyl-3-(4-morpholinomethyl)-pyrrolo[1,2,3]-1,4-benzoxazin-6-yl]-1-naphthalenylmethanone mesylate]
decrease in cell viability of MPCs (CD38+) ([1]; 20 μM): 70% | decrease in cell viability of MPCs (CD38+) ([1]; 50 μM): 85% | tumor growth (tumor volume) ([2]; 5 mg/kg i.p. every 24 or 48 hours, NGS mice, U266 xenograft): considerably inhibits tumor growth | first day on which tumor volume differences were statistically significant ([2]; 5 mg/kg i.p. every 24 hours): 13 days | first day on which tumor volume differences were statistically significant ([2]; 5 mg/kg i.p. every 48 hours): 16 days | % viable cells at 50 μM [3]: 56.6% | IC50 [3]: 25.9 µM | IC50 [4]: 12.1 µM
